# Reference: ChEMBL document CHEMBL1146874, “Metabolism investigation leading to novel drug design 2: orally active prostacyclin mimetics. Part 5” (Bioorg Med Chem Lett, 2006)
# Experiments:
# [1] = test system: Rattus norvegicus; test: AUC in rat at 10 mg/kg, po; assay type: ADME, organism-based, Plasma; parameters: dose 10 mg/kg, route oral; conditions: in vivo
# [2] = AUC in human at 12.5 ug, po; assay type: ADME, organism-based; conditions: plasma
# [3] = Half life in human at 12.5 ug, po; assay type: ADME, organism-based; conditions: in vivo
# [4] = Bioavailability in rat at 10 mg/kg, […]; assay type: ADME, organism-based; conditions: in vivo
# [5] = organism: Homo sapiens; test: Inhibition of ADP-induced platelet aggregation in human platelet rich plasma; assay type: functional, organism-based
# [6] = Intrinsic clearance in rat liver microsomes after 60 mins; assay type: ADME, Microsome
# [7] = Cmax in rat at 10 mg/kg, po; assay type: ADME, organism-based; parameters: dose 10 mg/kg, route oral; conditions: in vivo
# [8] = Bioavailability in human at 12.5 ug, po; assay type: ADME, organism-based; conditions: in vivo
# [9] = Cmax in human at 12.5 ug, po; assay type: ADME, organism-based; parameters: dose 12.5 ug, route oral; conditions: in vivo
# [10] = Blood to plasma ratio in human at 12.5 ug, po; assay type: ADME, organism-based; conditions: read-out: BPR
# [11] = Total clearance in rat at 10 mg/kg, iv; assay type: ADME, organism-based; parameters: dose 10 mg/kg, route intravenous; conditions: in vivo
# [12] = organism: Rattus norvegicus; test: Inhibition of ADP-induced platelet aggregation in rat platelet rich plasma; assay type: functional, organism-based
# [13] = Beta half life in rat at 10 mg/kg, iv; assay type: ADME, organism-based; parameters: dose 10 mg/kg, route intravenous; conditions: in vivo
# [14] = test system: Rattus norvegicus; test: Stability in orally dosed rat measured as glucuronide of M2 level in bile; assay type: ADME, organism-based; conditions: in vivo, po
# [15] = test system: Rattus norvegicus; test: Stability in orally dosed rat measured as M2 level in bile; assay type: ADME, organism-based; conditions: in vivo, po
Structure (SMILES),IC50 [5] [nM],CLint scaled [6] [mL/min/kg],IC50 [12] [nM],other results
O=C(O)COc1cccc2c1CC[C@](O)(COC(=O)N(c1ccccc1)c1ccccc1)C2,18,31.9,,AUC [1]: 601 ng·h/mL; AUC [2]: 0.327 ng·h/mL; half-life [3]: 1.5 h; bioavailability [4]: 9.6%; Cmax [7]: 282 ng/mL; bioavailability [8]: 55%; Cmax [9]: 0.157 ng/mL; blood plasma ratio [10]: 0.57
O=C(O)COc1cccc2c1CC[C@](O)(COC(=O)N(c1ccc(F)cc1)c1ccc(F)cc1)C2,59,4.6,> 10000,AUC [1]: 1610 ng·h/mL; bioavailability [4]: 29.5%; clearance [11]: 30.3 mL/min/kg; Cmax [7]: 575 ng/mL; half-life [13]: 3 h
O=C(O)COc1cccc2c1CC[C@](O)(COC(=O)N(c1ccccc1F)c1ccccc1F)C2,63,44.8,,
O=C(O)COc1cccc2c1CC[C@](O)(COC(=O)N(c1ccccc1)c1ccc(F)cc1)C2,13,10.3,4580,AUC [1]: 961 ng·h/mL; bioavailability [4]: 19.2%; clearance [11]: 32.9 mL/min/kg; Cmax [7]: 434 ng/mL; half-life [13]: 1.6 h
O=C(O)COc1cccc2c1CC[C@](O)(COC(=O)N(c1ccccc1)c1ccc(Br)cc1)C2,49,12.3,6490,
O=C(O)COc1cccc2c1C(O)C[C@](O)(COC(=O)N(c1ccccc1)c1ccccc1)C2 (stereo partly drawn),198,,> 10000,
O=C(O)COc1cccc2c1CC[C@](O)(COC(=O)N(c1ccc(F)cc1)c1ccccc1F)C2,22,11.8,5110,
O=C(O)COc1cccc2c1CC[C@](O)(COC(=O)N(c1ccc(F)cc1)c1cccc(F)c1)C2,25,11.7,> 10000,
O=C(O)COc1cccc2c1CC[C@](O)(COC(=O)N(c1ccccc1)c1ccc(O)cc1)C2,35,,2490,Stability [14]: 33%; Stability [15]: 12%
O=C(O)COc1cccc2c1CC[C@](O)(COC(=O)N(c1cccc(F)c1)c1cccc(F)c1)C2,14,13.5,> 10000,
O=C(O)COc1cccc2c1CC[C@](O)(COC(=O)N(c1ccccc1)c1ccccc1)[C@H]2O,1290,,> 10000,
